# In patent US20030088057A1, “PEPTIDE SUBSTRATES PHOSPHORYLATED BY P21-ACTIVAGED PROTEIN KINASE STATEMENT REGARDING FEDERALLY SPONSORED REASEARCH OR DEVELOPMENT” (priority 1998, published 2003):
# Like-named read-outs stand apart in the source and are kept apart here. No end group written: not given here.
# Columns and labels:
# γ-PAK [1] = assay: Kinetic parameters (Km, Vmax) for phosphorylation of synthetic peptides by γ-PAK; type: biochemical, rabbit
# Experimental: (§1) Assays with peptides (I mM) were carried out with γ-PAK (1.6-5.6 units) in 25 μL reaction mixtures incubated for 30 min at 30° C. under conditions described above, except that 0.4 mg/mL of bovine serum albumin was added and the specific activity of ATP was 300-2000 cpm/pmol. Reactions were terminated with 5 μL of 100 mM ATP, and the amount of ^32p incorporated was quantitated by precipitation of 20 μL aliquots on P81 phosphocellulose paper with 75 mM H3PO4 as described previously [Bensen, E. S., et al., Biochim. Biophys. Acta, 1292:249-258 (1996)]. Peptides containing only one basic amino acid were analyzed by thin-layer electrophoresis on cellulose sheets for 2 h at 600 V with pyridine/acetic acid/water (10:100:890), pH 3.5, as solvent, as described previously [Bensen, E. S., et al., supra]. Activation of γ-PAK by autophosphorylation in the presence of Cdc42(GTPγS) was performed as previously described [Jakobi, R., et al., supra]. γ-PAK was also activated by limited digestion with trypsin as described previously [Rooney, R. D., et al., (1996), supra].
# γ-PAK [2] = assay: Rates of phosphorylation of synthetic peptides by γ-PAK; type: biochemical, rabbit; conditions: for 32P incorporated, %: AKRASAA taken as 100%; for substrate for γ-PAK (in words): synthetic peptides; for rate of phosphorylation compared to AKRASAA: relative to AKRASAA; for rate of phosphorylation compared to ARRASVA: other studies, ARRASVA = 100%
# Text: (§2) A. Materials. γ-PAK was purified from rabbit reticulocytes to apparent homogeneity by chromatography on DEAE-cellulose, SP-Sepharose, protamine agarose, and FPLC on Mono S and Mono Q. Histone I (type IIIS), mixed histone (type IIAS), trypsin (L-1-tosylamido-2-phenylethyl chloromethyl ketone treated), soybean trypsin inhibitor, bovine serum albumin (fatty acid free), and myelin basic protein were purchased from Sigma. Purified histones 2B and 4 were purchased from Boehringer-Mannheim. Myosin light chain from rabbit skeletal muscle was a gift from Dr. James Stull, University of Texas Southwestern Medical Center, Dallas, Tex.; rat prolactin was provided by Dr. Ameae Walker, University of California, Riverside, Calif.; and the purified catalytic subunit of cAMP-dependent protein kinase from bovine heart was a gift from Dr. William H. Fletcher, J. L. Pettis Memorial V. A. Hospital, Loma Linda, Calif. Protein kinase C was purified from bovine brain according to the procedure of Walton et al. [Walton, G. M., et al., Anal Biochem., 161:425-437 (1987)], with modifications [Venema, R. C., et al., J. Biol. Chem., 266:5298-5302 (1991)]. The clone for GST-Cdc42 was generously provided by Dr. Channing Der, University of North Carolina, Chapel Hill, N.C. Cellulose thin-layer chromatography sheets were from Kodak.
# D. Phosphorylation Assays. Phosphorylation of protein substrates was carried out in 35 μL reaction mixtures containing 20 mM Tris-HCl, pH 7.4, 10 mM MgCl2, 30 mM 2-mercaptoethanol, 0.2 mM ATP (specific activity =1000 cpm/pmol), 2 μg of protein substrate, and 20 units of active γ-PAK (an enzyme unit is defined as the amount of enzyme that incorporates 1 pmol of phosphate into histone IIAS/ min at 30°. Under these conditions, phosphate incorporation was linear and initial rates of phosphorylation were measured. After incubation at 30° C. for 15 min, reactions were terminated by the addition of 5 μL of 100 mM nonlabeled ATP and sample buffer for gel electrophoresis [Hathaway, G. M., et al., Methods Enzymol., 60:495-511 (1979)]. Reaction mixtures were subjected to SDS-PAGE on 15% polyacrylamide gels followed by autoradiography. Phosphorylation was quantified by excising the protein band and counting the incorporated ^32P in a liquid scintillation counter. The specific activity of γ-PAK was 400 pmol min^−1 μg^−1 as reported previously using 0.2 mM ATP and 1 mg/mL mixed histone as substrate [Rooney, R. D., et al., (1996), supra].
# as §1
# Target sequence in this assay (Q29502 249-500 limits assumed): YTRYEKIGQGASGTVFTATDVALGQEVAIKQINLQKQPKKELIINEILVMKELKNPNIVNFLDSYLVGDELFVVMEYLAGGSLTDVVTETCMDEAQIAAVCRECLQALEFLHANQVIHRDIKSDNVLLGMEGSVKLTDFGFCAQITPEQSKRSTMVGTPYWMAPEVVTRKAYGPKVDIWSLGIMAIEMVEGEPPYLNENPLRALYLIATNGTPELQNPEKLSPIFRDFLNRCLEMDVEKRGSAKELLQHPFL
# PKC = assay: Rates of phosphorylation of synthetic peptides by PKC; type: biochemical, bovine; conditions: for 32P incorporated: PKC (3.4 units), with Ca2+ and phospholipids, 0.14 mM ATP; for 32P incorporated, %: PKC, AKRASAA taken as 100%
# Text: as §2
# Reactions with PKA (10.5 units) were carried out under the same conditions as with γ-PAK except that 0.14 mM ATP was used. Reactions with PKC (3.4 units) were performed as with PKA, with the addition of 0.4 mM CaCl2, phosphatidylinositol (15 μg/mL), phosphatidylserine (15 μg/ mL), and 1,2-diolein (3 μg/mL), as described [Tuazon, P. T., et al., (1989), supra]. A unit of PKA or PKC is defined as the amount of enzyme that incorporates 1 pmol of phosphate/min at 30° C. into histone IIAS or histone 1, respectively.
# PKA and PKC are known to require basic amino acids on the N-terminal side of the phosphorylatable serine/ threonine. To distinguish their substrate specificities from that of γ-PAK, the relative rates of phosphorylation were determined with the synthetic peptide substrates using the conditions for γ-PAK, with the addition of Ca^2+ and phospholipids for PKC. The rates shown in Table 5 are calculated with equivalent units of enzyme; the rate of phosphorylation of the peptide AKRASAA (SEQ ID NO:6) is taken as 100% for all three enzymes. As would be expected, PKA preferentially phosphorylated the peptides that contained RR or RK at the −3 and −2 positions and with […] residues or proline at the −4 and −1 positions inhibitory. PKC recognized SKR>RKS>KKS. The most notable difference between γ-PAK and PKA or PKC is the effect of acidic residues on the susceptibility of the peptide to be phosphorylated. An acidic residue in the −1 or −4 position was beneficial for γ-PAK but was detrimental for both PKA and PKC (Table 5). […] In addition, γ-PAK could not tolerate an arginine in the −3 position when lysine was in the −2 position.
# [3] = Cdc42(GTPγS)-activated γ-PAK, peptide 1 mM, KKRKSAA = 100
# [4] = proteolytically (trypsin) activated γ-PAK, peptide 1 mM, compared to KKRKSAA = 100
# [5] = proteolytically activated γ-PAK (5.6 units), peptide 1 mM, 30 min at 30° C.
# [6] = γ-PAK, calculated with equivalent units of enzyme
# [7] = Table 2, influence of basic amino acids, γ-PAK 1.6 units, ATP 0.2 mM
# [8] = Table 2, influence of basic amino acids, γ-PAK 1.6 units, ATP 0.2 mM, read-out: Km
# [9] = Table 4, influence of proline and glycine
# [10] = Table 4, influence of proline and glycine, read-out: Km
Molecule,rel rate (%) (γ-PAK [2]; [3]),rel rate (%) (γ-PAK [2]; [4]),32P incorporated (γ-PAK [2]; [5]),substrate for γ-PAK (in words) (γ-PAK [2]),other results
"Nc1ncnc2c1ncn2[C@@H]1O[C@H](COP(=O)(O)OP(=O)(O)OP(=O)(O)O)[C@@H](O)[C@H]1O [ATP, reference compound]",,,,,"Km (γ-PAK [1]; at concentrations of 1-3 mM peptide, read-out: Km for ATP): 65 to 80 µM"
AAAASKR (AAAASKR-NH2) [synthetic peptide with an amide C-terminal group],0%,0%,0 pmol/min/µg,,"32P incorporated, % (γ-PAK [2]; γ-PAK): 0%; 32P incorporated (γ-PAK [2]; [6]): 0 pmol/unit; 32P incorporated (PKC): 13.3 pmol/unit; 32P incorporated, % (PKC): 403%"
AAKKSAA (AAKKSAA-NH2) [synthetic peptide with an amide C-terminal group],0%,0%,0 pmol/min/µg,poor substrates,
AAKRSAA (AAKRSAA-NH2) [synthetic peptide with an amide C-terminal group],0%,0%,0 pmol/min/µg,poor substrates,
AARASAA (AARASAA-NH2) [synthetic peptide with an amide C-terminal group],56%,56%,169 pmol/min/µg,reacted to a small but significant extent,rate of phosphorylation compared to AKRASAA (γ-PAK [2]; γ-PAK): 40%; Vmax (γ-PAK [1]; [7]): 2.27 pmol/min; Km (γ-PAK [1]; [8]): 1880 µM
AKRASGA (AKRASGA-NH2) [synthetic peptide with an amide C-terminal group],,107%,324 pmol/min/µg,,increase of Km compared to AKRASAA (γ-PAK [1]): 4 fold; increase of Vmax compared to AKRASAA (γ-PAK [1]): 3 fold; overall rate of phosphorylation (Vmax/Km) compared to AKRASAA (γ-PAK [1]): slight overall decrease; Vmax (γ-PAK [1]; [9]): 3.49 pmol/min; Km (γ-PAK [1]; [10]): 2090 µM
AKRASPA (AKRASPA-NH2) [synthetic peptide with an amide C-terminal group],3%,0%,0 pmol/min/µg,virtually abolished phosphorylation,Km (γ-PAK [1]; [10]): > 5000 µM
AKRGSAA (AKRGSAA-NH2) [synthetic peptide with an amide C-terminal group],,126%,381 pmol/min/µg,,increase of Km compared to AKRASAA (γ-PAK [1]): 7 fold; increase of Vmax compared to AKRASAA (γ-PAK [1]): 6 fold; overall rate of phosphorylation (Vmax/Km) compared to AKRASAA (γ-PAK [1]): slight overall decrease; Vmax (γ-PAK [1]; [9]): 6.44 pmol/min; Km (γ-PAK [1]; [10]): 3520 µM
AKRKSAA (AKRKSAA-NH2) [synthetic peptide with an amide C-terminal group],158%,181%,548 pmol/min/µg,,Vmax (γ-PAK [1]; [7]): 2.34 pmol/min; Km (γ-PAK [1]; [8]): 480 µM
AKRPSAA (AKRPSAA-NH2) [synthetic peptide with an amide C-terminal group],11%,6%,16 pmol/min/µg,virtually abolished phosphorylation,"32P incorporated, % (γ-PAK [2]; γ-PAK): 5%; 32P incorporated (γ-PAK [2]; [6]): 1.2 pmol/unit; Km (γ-PAK [1]; [10]): > 5000 µM; 32P incorporated (PKC): 3.9 pmol/unit; 32P incorporated, % (PKC): 118%"
ARAASVA [synthetic peptide],,,,reacted to a small but significant extent,rate of phosphorylation compared to ARRASVA (γ-PAK [2]; γ-PAK): 40%; rate of phosphorylation compared to AKRASAA (γ-PAK [2]; γ-PAK): 40%
ARKASAA (ARKASAA-NH2) [synthetic peptide with an amide C-terminal group],9%,6%,16 pmol/min/µg,poor substrates,"32P incorporated, % (γ-PAK [2]; γ-PAK): 3%; 32P incorporated (γ-PAK [2]; [6]): 0.9 pmol/unit; Km (γ-PAK [1]; [8]): > 5000 µM; 32P incorporated (PKC): 5.7 pmol/unit; 32P incorporated, % (PKC): 173%"
ARRASVA [synthetic peptide],,,,,rate of phosphorylation compared to ARRASVA (γ-PAK [2]; γ-PAK): 100%
KKAASAA (KKAASAA-NH2) [synthetic peptide with an amide C-terminal group],3%,0%,0 pmol/min/µg,did not,
KKRASAA (KKRASAA-NH2) [synthetic peptide with an amide C-terminal group],181%,193%,586 pmol/min/µg,,Vmax (γ-PAK [1]; [7]): 1.59 pmol/min; Km (γ-PAK [1]; [8]): 370 µM
